Columns and labels:
[1] = tested on: pristane-induced arthritis (PIA); assay: Pristane-induced arthritis (PIA) rat model; type: in vivo; settings: 20 mg/kg s.c. days 5, 7, 9, 11, 13, 15
Excerpt: Pristane-induced arthritis (PIA) in rats is an animal model that mimics the criteria used for diagnosis of rheumatoid arthritis (RA). PIA is one of the most reproducible models of RA with high incidence and little variation in severity. Disease is characterized by a pronounced T cell dependent inflammatory response resulting in inflammation of peripheral joints. Disease is induced with a single injection of pristane and has a highly reproducible onset of arthritis between day 8-12. The most severe phase of arthritis is often between day 15-25 after induction and experiment can be terminated after 25-30 days. For disease induction rats were anaesthetized with IsoFlo vet (3%) and oxygen. The root of the tail was cleaned with EtOH and pristane was injected subcutaneously (s.c.) (volume 200 μl) approximately 0.5 cm from the root of the tail. A slight pressure was put on the injection site for 10 seconds after injections to prevent leakage of oil. Rats were removed from anaesthetics and the breathing was monitored until recovery was ensured. […] Disease was evaluated 3 times per week in a blinded fashion from day 10 using a macroscopic scoring system of the four limbs ranging from 0 to (1 point for each swollen or red toe, 1 point for a swollen or red mid foot digit or knuckle, […]) resulting in a maximum total score of 60 for each rat. […]

[2] = tested on: Reactive Oxygen Species (ROS) production in PBMCs; assay: Isoluminol assay: ROS production in PMA-activated PBMCs; type: cell-based, human; settings: PBMCs activated with PMA at 30 ng/ml; luminescence measured over 25 minutes; FIGS. 1 and 2
Excerpt: Oxygen metabolism has an important role in the pathogenesis of both rheumatoid arthritis and multiple sclerosis. Reactive oxygen species (ROS) produced in the course of cellular oxidative phosphorylation, and by activated phagocytic cells during oxidative bursts, exceed the physiological buffering capacity and result in oxidative stress. The excessive production of ROS can damage protein, lipids, nucleic acids, and matrix components. ROS also serve as important intracellular signaling molecules that amplify the synovial inflammatory-proliferative response.
Frozen PBMCs, isolated from human blood (Blodcentralen, Lund, Sweden) through gradient centrifugation using Ficoll, were thawed quickly, activated with PMA at 30 ng/ml and treated with Rabeximod or the inventive compound, at different concentrations ranging from 12.5 μg/ml with 1:2 dose titrations over 8 steps. Controls included were DMSO control, PMA at 30 ng/ml and 0 μg/ml of test items. […] Cell concentration was determined using a Scepter cell counter (Millipore Merck, MA, USA) and diluted at 2×10^6 cells/ml when added to the assay plate. The luminescence signal was measured over 25 minutes.
ROS production was investigated after treatment with the inventive compound or Rabeximod at different concentrations ranging from 12.5 μg/ml with 1:2 dose titrations over 8 steps. Luminescence signal was measured over 25 minutes.

TNF-α = assay: LPS assay: TNF-α release in whole blood; type: cell-based, human; settings: LPS 500 ng/ml
Description: (§1) Inflammation can be induced in vitro by stimulation with LPS, manifested by the release of various cytokines. […] TNF-α, IL1β and IL-6 are important cytokines in the pathogenesis of RA and MS and therefore selected in this assay.
(§2) Whole blood was collected from an adult volunteer in Heparin tubes. LPS stimulation started within 60 minutes of blood draw. The blood was diluted with RPMI and then stimulated with LPS and incubated with different concentrations of either Rabeximod or the inventive compound. The samples were centrifuged and plasma harvested and analysed on Luminex to measure cytokines.
(§3) The release of cytokines and chemokines was investigated after stimulation of whole blood with LPS, and treatment with either the inventive compound or Rabeximod.

IL-6 = assay: LPS assay: IL-6 release in whole blood; type: cell-based, human; settings: LPS 500 ng/ml
Description: as §1, §2, §3

IL-1β = assay: LPS assay: IL-1β release in whole blood; type: cell-based, human; settings: LPS 500 ng/ml
Description: as §1, §2, §3

[3] = tested on: collagen antibody induced arthritis (CAIA); assay: Collagen antibody induced arthritis (CAIA) mouse model; type: in vivo, mice (DBA/1); settings: for histological (IHC) score of front paws compared with vehicle: 20 mg/kg, at study termination, score 0-3, FIG. 8; for disease severity (macroscopic arthritis score) compared with vehicle: not significant; for adverse effects from treatments: CAIA mice, any of the doses tested (5, 10, 20 mg/kg s.c.)
Excerpt: The collagen antibody induced arthritis (CAIA) arthritis in mice is a model independent of both B and T cells. CAIA is an acute model of arthritis and the disease is induced with antibodies to collagen type II. The antibodies bind to cartilage, leading to activation of the immune system followed by recruiting of macrophages and granulocytes to the joints. After an LPS boost at day five, disease progression starts and reaches a maximum around day 15. CAIA model: Mice (DBA/1, 8-10 weeks old) were weighed at day −1 for determination of mean weight of animals in the experiment and for composition of groups. Groups were mixed within cages to avoid cage effects. The mice were injected i.v. with a cocktail of four (4) monoclonal antibodies against collagen type II (2 mg/mouse) on day 0. Day 5 the mice were injected with LPS (50 μg/mouse) i.p., in order to boost the disease. Dose preparation of test items were performed daily in corn oil. Disease was evaluated daily from day 3 in a blinded fashion using a macroscopic scoring system of the four limbs ranging from 0 to 15 (1 point for each swollen or red toe, 1 point for a swollen or red mid foot digit or knuckle, 5 points for a swollen ankle) resulting in a maximum total score of 60 for each mouse. Due to ethical restrictions, animals with a score exceeding 45 were removed from the experiment. Immunohistochemistry: Front paws from animals, in the vehicle, Rabeximod (20 mg/kg) and the inventive compound (20 mg/kg) groups, were collected at termination of the animals. The paws were immediately transferred to 4% formaldehyde containing vials for immersion fixation. The tissues were fired for 24 hours and then transferred to 70% EtOH and stored at +4° C. until staining. Paws were decalcified, paraffin embedded, sectioned and stained for hematoxylin and eosin (H&E). Resulting slides were photographed at high resolution. Images were used for morphology analysis to study cartilage destruction and infiltration of inflammatory cells in the joints. An overall assessment for the whole paw were scored (0-3), including evaluation of synovial inflammation, synovial pannus formation and bone destruction. Graphs and statistical analysis were performed using Prism 8 for Mac OS X (GraphPad Software, San Diego, CA, USA). Results are presented as mean values±SEM, if not otherwise stated. Statistics were calculated using a two-tailed non-parametric Mann-Whitney test where p<0.05 was considered significant. * represents a p-value<0.05, ** represents a p-value<0.01 and *** represents a p-value<0.001.

[4] = lower concentrations (from 312.5 nM, below 5000 nM)

melting point | SMILES | RA score (macroscopic arthritis score) ([1]; all study time points measured, FIG. 9) | efficacy during the most severe phase of arthritis ([1]; compared with Rabeximod) | concentration that inhibits ROS production completely [2] | level of TNF-α compared to Rabeximod (TNF-α; compound at 5000 nM, FIG. 3) | level of TNF-α compared to Rabeximod (TNF-α; [4]) | level of IL-6 compared to Rabeximod (IL-6; compound at 5000 nM, FIG. 4) | level of IL-6 compared to Rabeximod (IL-6; [4]) | level of IL-1β compared to Rabeximod (IL-1β; compound at 5000 nM, FIG. 5) | level of IL-1β compared to Rabeximod (IL-1β; [4]) | histological (IHC) score of front paws compared with vehicle [3] | dose-response of arthritis severity compared to Rabeximod ([3]; 5, 10 and 20 mg/kg s.c.) | disease severity (macroscopic arthritis score) compared with vehicle ([3]; 10 and 20 mg/kg s.c. every other day from day 5, six administrations, FIG. 6) | adverse effects from treatments [3] | disease severity (macroscopic arthritis score) compared with vehicle ([3]; all three doses (5, 10 and 20 mg/kg) s.c. every other day from day 5, six administrations, FIG. 7)
184 to 188 °C | Cc1cc2nc3c4cc(Cl)ccc4n(CC(=S)NCCN(C)C)c3nc2cc1C [inventive compound, 2-(9-chloro-2,3-dimethyl-6H-indolo[2,3-b]quinoxalin-6-yl)-N-(2-(dimethylamino)ethyl)ethanethioamide] | slightly lower | better efficacy than Rabeximod | 6.25 µg/mL | significantly lower | trend of reduced cytokines levels | significantly lower | trend of reduced cytokines levels | significantly lower | trend of reduced cytokines levels | significantly lower | clear dose-response | small decrease in disease severity | No adverse effects | 
 | Cc1cc2nc3c4cc(Cl)ccc4n(CC(=O)NCCN(C)C)c3nc2cc1C [Rabeximod, 2-(9-chloro-2,3-dimethyl-6H-indolo[2,3-b]quinoxalin-6-yl)-N-(2-(dimethylamino)ethyl)acetamide] |  |  | 12.5 µg/mL |  |  |  |  |  |  | No significant difference |  |  | No adverse effects | small decrease in disease severity
